Measurements reported in US6399355B1 (priority 1995, dated 2002).

Test system: HIV-1
Format: cell-based
Conditions: for Inhibition Ratio (Number of viral particles/ml in control)/(Number with drug added): 1 μg/ml test compound mixed with HIV-1 (10^5 infectious units) at 37° C. for 2 hours, cells cultured six days; for viral inactivation (in words): at these concentrations (1 μg/ml)
Description: HIV-1 (10^5 infectious units) was mixed with 1 μg/ml of test compound at 37° C. for 2 hours. Test cells were innoculated with the mixture for two hours. The cells were then washed three times with PBS and cultured for six days.

Dextran sulfate
Inhibition Ratio (Number of viral particles/ml in control)/(Number with drug added): 1
viral inactivation (in words): do not show significant activation

pentosan sulfate [Pentosan Sultate]
Inhibition Ratio (Number of viral particles/ml in control)/(Number with drug added): 1
viral inactivation (in words): do not show significant activation
